Our source for the Activity, EC50 and Ki values is ChEMBL document CHEMBL5356990, “Overview of CFTR activators and their recent studies for dry eye disease: a review” (RSC Med Chem, 2023).

A short description of experiment [1]: (§1) In vivo activation CFTR expressed in wild-type CD1 mouse assessed as hyperpolarization of ocular surface by measuring potential difference at 1 to 10 uM. Type of experiment: functional. Particulars: dose 1-10 µM.
The target of experiment [2] is T1, Cystic fibrosis transmembrane conductance regulator (Homo sapiens, UniProt P13569). Put plainly: Activation of human CFTR expressed in rat FRT cells. Type of experiment: cell-based.
Experiment [3] deals with T1, Cystic fibrosis transmembrane conductance regulator. In words: Binding affinity at human wildtype CFTR assessed as inhibition constant by fluorescence based analysis.
Experiment [4] shares this target. In words: Activation of wildtype CFTR (unknown origin) expressed in CHO cells. Format: cell-based.
Experiment [5] has the same target. Put plainly: Activation of human wildtype CFTR expressed in rat FRT cells by patch clamp analysis. Type of experiment: cell-based.
Experiment [6] shares this target. Put plainly: Activation of CFTR (unknown origin).
Experiment [7] has the same target. Put plainly: Activation of wildtype CFTR in human Calu-3 cells. Format: cell-based.
A further experiment concerns Mus musculus. The description is as §1. Format: functional. Particulars: dose 1-10 µM.
Experiment [8] addresses T1, Cystic fibrosis transmembrane conductance regulator. Put plainly: Activation of human wildtype CFTR.
For experiment [9], the system named is Cystic fibrosis transmembrane conductance regulator (Homo sapiens), P13569 [G551D]. In words: Activation of CFTR G551D mutant (unknown origin). Particulars: filed as opener.
Chain of Cystic fibrosis transmembrane conductance regulator (Homo sapiens), P13569 [G551D] (P13569 whole entry G551D): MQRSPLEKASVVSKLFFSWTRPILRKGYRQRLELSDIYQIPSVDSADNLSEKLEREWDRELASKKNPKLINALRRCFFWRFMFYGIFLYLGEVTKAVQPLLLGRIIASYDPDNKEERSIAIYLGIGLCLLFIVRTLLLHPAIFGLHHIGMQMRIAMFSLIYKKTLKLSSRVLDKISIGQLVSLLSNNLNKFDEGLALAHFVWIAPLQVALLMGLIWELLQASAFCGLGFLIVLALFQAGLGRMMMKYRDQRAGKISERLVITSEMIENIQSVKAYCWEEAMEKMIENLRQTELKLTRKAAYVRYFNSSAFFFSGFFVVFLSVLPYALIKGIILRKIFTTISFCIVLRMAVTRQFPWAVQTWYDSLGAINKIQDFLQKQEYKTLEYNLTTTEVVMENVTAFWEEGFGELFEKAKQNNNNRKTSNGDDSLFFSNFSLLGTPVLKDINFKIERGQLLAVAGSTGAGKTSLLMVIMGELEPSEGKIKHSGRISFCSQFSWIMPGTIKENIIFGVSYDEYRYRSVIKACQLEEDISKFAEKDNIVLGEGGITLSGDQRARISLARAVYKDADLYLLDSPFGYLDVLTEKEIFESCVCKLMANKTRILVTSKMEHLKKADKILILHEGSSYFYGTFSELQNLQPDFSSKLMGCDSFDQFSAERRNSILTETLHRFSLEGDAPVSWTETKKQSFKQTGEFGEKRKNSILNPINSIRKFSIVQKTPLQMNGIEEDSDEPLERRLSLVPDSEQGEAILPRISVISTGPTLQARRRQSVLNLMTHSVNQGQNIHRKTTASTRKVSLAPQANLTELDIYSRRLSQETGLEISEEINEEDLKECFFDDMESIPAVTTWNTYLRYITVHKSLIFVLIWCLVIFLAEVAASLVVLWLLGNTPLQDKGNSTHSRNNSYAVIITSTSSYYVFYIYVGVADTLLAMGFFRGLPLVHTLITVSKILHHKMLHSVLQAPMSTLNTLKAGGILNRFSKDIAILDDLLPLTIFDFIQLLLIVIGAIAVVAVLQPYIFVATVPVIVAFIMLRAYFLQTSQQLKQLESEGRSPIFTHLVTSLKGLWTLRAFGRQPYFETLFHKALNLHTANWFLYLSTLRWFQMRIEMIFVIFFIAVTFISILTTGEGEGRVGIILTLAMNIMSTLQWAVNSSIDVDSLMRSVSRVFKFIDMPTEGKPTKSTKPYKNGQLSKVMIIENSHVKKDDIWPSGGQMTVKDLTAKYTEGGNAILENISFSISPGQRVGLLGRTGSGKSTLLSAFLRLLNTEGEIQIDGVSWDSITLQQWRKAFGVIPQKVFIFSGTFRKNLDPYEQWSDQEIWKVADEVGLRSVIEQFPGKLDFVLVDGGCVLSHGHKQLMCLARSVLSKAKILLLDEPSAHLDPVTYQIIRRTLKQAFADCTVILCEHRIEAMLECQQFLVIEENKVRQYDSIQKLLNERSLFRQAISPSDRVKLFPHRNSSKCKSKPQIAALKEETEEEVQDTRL

T1 sequence (P13569 whole entry): as the sequence (P13569 whole entry G551D) above, with D551G counted along it

Consider `CCN(CC)c1nc(Nc2ccccc2)nc(OC(C(F)(F)F)C(F)(F)F)n1`, for which the Activity in experiment [1] was -8.5 mV.

Take `CNc1nc(Nc2ccc([N+](=O)[O-])cc2)nc(OCC(F)(F)C(F)F)n1`: the Activity in experiment [1] is recorded as -10 mV. With `COc1ccc(Cc2nnc(NC(=O)Cc3c(F)cccc3Cl)s2)cc1OC`, the midpoint of the response in experiment [2], the EC50, lay at 571 nM. In addition, the Activity in experiment [1] is given as -3.1 mV. As for `O=c1cc(-c2ccncc2)oc2c1cc(-c1ccco1)c1ccccc12`, the Ki – broadly, the equilibrium dissociation constant of an inhibitor or competing ligand from its target – in experiment [3] turned out to be 1700 nM.

As for `COc1ccccc1CC(=O)Nc1nnc(Cc2ccc(OC)c(OC)c2)s1`, in experiment [2], the EC50 – broadly, the concentration at which the effect is half-maximal – was found to be 340 nM. The Activity in [1] is on record as -9.9 mV. `CCCn1cnc2c1N=CN1C2=N[C@](C)(C(=O)O)[C@H](O)[C@@]1(C)O` gave an EC50 in [4] of 2900 nM. Consider `CC/N=C1\S/C(=C\c2ccc3c(c2)OCO3)C(=O)N1CC`, for which the half-maximal effective concentration (EC50) in [2] is 2000 nM. Further, in experiment [1], the Activity is listed as -2.5 mV. `Nc1ccc([N+](=O)[O-])cc1-c1nc2ccccc2n(Cc2ccccc2)c1=O`: the EC50 is roughly 200 nM in [5] and 138 nM in experiment [2]. The Activity in [1] is -9.1 mV. Compound `CNc1nc(Nc2cccc([N+](=O)[O-])c2)nc(OCC(F)(F)F)n1` returned a concentration for a half-maximal effect (EC50) in experiment [2] of 400 nM. In addition, in [1], the Activity is recorded as -7.4 mV.

In turn, `CC(C)c1ccc(NC(=O)[C@H](c2ccccc2)N(C)C(=O)Cc2c[nH]c3ccccc23)cc1` came in with an EC50 in experiment [6] of 70 nM.

For `CCOc1ccccc1CC(=O)Nc1nnc(Cc2ccc(OC)c(OC)c2)s1`, the EC50 in experiment [2] worked out at 377 nM. The Activity in [1] was -3.4 mV. In experiment [7], `CC(C)Cn1c(=O)c2[nH]cnc2n(C)c1=O` registered an EC50 of 100000 nM. Consider `CC(C)(C)c1cc(C(C)(C)C)c(NC(=O)c2c[nH]c3ccccc3c2=O)cc1O`, for which the Activity with Mus musculus was -1.8 mV. For `O=C(c1cccs1)N1N=C(c2ccccc2)CC1c1ccccc1[N+](=O)[O-]` (stereo unspecified), a half-maximal response in [2] (EC50) required 385 nM. For the same compound, the Activity in [1] is -4.1 mV. For `COc1ccc(Cc2nnc(NC(=O)Cc3cccs3)s2)cc1OC` the same measures were 685 nM and -2.5 mV. Turning to `O=c1cc(-c2ccc(O)cc2)oc2cc(O)cc(O)c12` [APIGENIN], in [3], the Ki was determined as 4800 nM. As to `CC(C)Cn1c(=O)n(C)c(=O)c2[nH]cnc21` [ISOBUTYLMETHYLXANTHINE], the EC50 in experiment [7] worked out at 45000 nM. Turning to `CNc1nc(Nc2ccccc2)nc(OCC(F)(F)C(F)F)n1`, the EC50 in experiment [8] was roughly 30 nM. Take `CCCCc1c(-c2ccc(O)cc2)[nH]c2nccnc12`: the Activity in experiment [9] was determined as 1.5 nM. On to `CCCn1cnc2c1N=CN1C2=N[C@](C)(C(=O)O)[C@@H](O)[C@@]1(C)O`, for which, in experiment [4], the response was half-maximal at 2100 nM (EC50). In other words, the single-digit micromolar range. As for `Cc1cc(C)cc(/N=C2/NC(=O)/C(=C/c3ccc(O)cc3)S2)c1`, the EC50 in experiment [2] came out at 332 nM. Besides, the Activity in experiment [1] is -8.6 mV.
